Measured values reported in the supplement of paper PMC10307832.

Legend:
Experiment in all cases: relative viability (nuclei count vs DMSO), 5 days (fraction); higher = more cells survive
BI-D1870 + Crizotinib = compound: CC(C)CCN1c2nc(Nc3cc(F)c(O)c(F)c3)ncc2N(C)C(=O)C1C [BI-D1870] + C[C@@H](Oc1cc(-c2cnn(C3CCNCC3)c2)cnc1N)c1c(Cl)ccc(F)c1Cl [Crizotinib] (partner 1 µM)
In short: (§1)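 The day after seeding in 1536-well plates, lung cancer cell lines were treated by pin tool with a single drug, or with a fixed anchor-drug dose together with five library-drug doses (not always all listed) in √10 steps. After 5 days, a combined fix-and-stain solution (final 0.05% Triton X-100, 1% formaldehyde, 1 ug/ml Hoechst) was added. Nuclei counted on 4× images gave relative viability as treated counts over vehicle counts, reported as the median of duplicate plates.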

Zebularine + OSI-027 = compound: O=c1ncccn1[C@@H]1O[C@H](CO)[C@@H](O)[C@H]1O [Zebularine] + COc1cccc2cc(-c3nc([C@H]4CC[C@H](C(=O)O)CC4)n4ncnc(N)c34)[nH]c12 [OSI-027] (partner 0.5 µM)
In short: as §1

BI-D1870 + Pemetrexed = compound: CC(C)CCN1c2nc(Nc3cc(F)c(O)c(F)c3)ncc2N(C)C(=O)C1C [BI-D1870] + Nc1nc2[nH]cc(CCc3ccc(C(=O)N[C@@H](CCC(=O)O)C(=O)O)cc3)c2c(=O)[nH]1 [Pemetrexed] (partner 0.2 µM)
In short: as §1

BI-D1870 + Luminespib = compound: CC(C)CCN1c2nc(Nc3cc(F)c(O)c(F)c3)ncc2N(C)C(=O)C1C [BI-D1870] + CCNC(=O)c1noc(-c2cc(C(C)C)c(O)cc2O)c1-c1ccc(CN2CCOCC2)cc1 [Luminespib] (partner 0.01 µM)
In short: as §1

Row | Cell Line | relative viability (BI-D1870 + Crizotinib; first compound 0.04 µM) | relative viability (BI-D1870 + Crizotinib; first compound 0.1265 µM) | relative viability (BI-D1870 + Crizotinib; first compound 0.4 µM) | relative viability (BI-D1870 + Crizotinib; first compound 1.265 µM) | relative viability (BI-D1870 + Crizotinib; first compound 4 µM) | relative viability (Zebularine + OSI-027; first compound 1 µM) | relative viability (Zebularine + OSI-027; first compound 3.162 µM) | relative viability (Zebularine + OSI-027; first compound 10 µM) | relative viability (Zebularine + OSI-027; first compound 31.62 µM) | relative viability (Zebularine + OSI-027; first compound 100 µM) | relative viability (BI-D1870 + Pemetrexed; first compound 0.04 µM) | relative viability (BI-D1870 + Pemetrexed; first compound 0.1265 µM) | relative viability (BI-D1870 + Pemetrexed; first compound 0.4 µM) | relative viability (BI-D1870 + Pemetrexed; first compound 1.265 µM) | relative viability (BI-D1870 + Pemetrexed; first compound 4 µM) | relative viability (BI-D1870 + Luminespib; first compound 0.04 µM) | relative viability (BI-D1870 + Luminespib; first compound 0.1265 µM) | relative viability (BI-D1870 + Luminespib; first compound 0.4 µM) | relative viability (BI-D1870 + Luminespib; first compound 1.265 µM) | relative viability (BI-D1870 + Luminespib; first compound 4 µM)
1 | HCC-366 | 0.694 | 0.485 | 0.471 | 0.933 | 0.378 | 1.02 | 0.831 | 0.558 | 0.807 | 0.253 | 0.148 | 0.174 | 0.215 | 0.176 | 0.118 | – | – | – | – | –
2 | HCC-827 | 0.97 | 0.912 | 0.95 | 0.947 | 0.821 | 1.06 | 0.779 | 0.675 | 0.609 | 0.366 | 0.184 | 0.31 | 0.241 | 0.254 | 0.141 | 0.629 | 0.672 | 0.681 | 0.736 | 0.714
3 | HOP-62 | 1.08 | 0.986 | 0.963 | 1.01 | 0.915 | 0.945 | 0.745 | 0.493 | 0.465 | 0.319 | 0.331 | 0.333 | 0.379 | 0.409 | 0.365 | 0.989 | 0.929 | 0.88 | 0.95 | 0.866
4 | IA-LM | 1.19 | 0.942 | 0.845 | 0.569 | 0.176 | – | – | – | – | – | – | – | – | – | – | – | – | – | – | –
5 | LC-2-ad | 0.51 | 0.454 | 0.394 | 0.544 | 0.434 | 0.858 | 0.559 | 0.546 | 0.573 | 0.529 | 0.292 | 0.267 | 0.264 | 0.275 | 0.253 | 1.2 | 0.953 | 0.943 | 0.911 | 0.769
6 | LCLC-97TM1 | 0.361 | 0.361 | 0.36 | 0.57 | 0.312 | 0.572 | 0.533 | 0.258 | 0.198 | 0.213 | 0.173 | 0.188 | 0.16 | 0.221 | 0.175 | 0.892 | 0.775 | 0.769 | 0.918 | 0.846
7 | LCLC-103H | 1.18 | 0.889 | 0.868 | 1.1 | 1.03 | 0.474 | 0.434 | 0.321 | 0.414 | 0.462 | 0.453 | 0.457 | 0.48 | 0.434 | 0.439 | 0.989 | 0.753 | 0.888 | 1.07 | 0.934
8 | LK-2 | 0.187 | 0.233 | 0.232 | 0.274 | 0.264 | 0.187 | 0.181 | 0.195 | 0.202 | 0.162 | 0.253 | 0.352 | 0.31 | 0.306 | 0.282 | 0.204 | 0.19 | 0.185 | 0.169 | 0.212
9 | LOU-NH91 | 0.8 | 0.702 | 0.735 | 0.75 | 0.647 | 0.746 | 0.7 | 0.66 | 0.699 | 0.571 | 0.355 | 0.372 | 0.329 | 0.386 | 0.344 | 0.366 | 0.33 | 0.315 | 0.351 | 0.264
10 | LU99A | 0.692 | 0.539 | 0.552 | 0.547 | 0.508 | 0.314 | 0.278 | 0.284 | 0.294 | 0.216 | 0.178 | 0.2 | 0.171 | 0.183 | 0.135 | 0.263 | 0.223 | 0.276 | 0.258 | 0.229
11 | LXF-289 | 0.905 | 0.796 | 0.797 | 0.793 | 0.619 | 0.827 | 0.69 | 0.626 | 0.564 | 0.329 | 0.959 | 0.857 | 0.876 | 0.877 | 0.764 | 0.809 | 0.607 | 0.674 | 0.74 | 0.533
12 | NCI-H522 | – | – | – | – | – | 0.769 | 0.544 | 0.683 | 0.676 | 0.707 | 1.24 | 1.01 | 0.978 | 1 | 0.984 | 0.929 | 1.05 | 0.989 | 1.24 | 1.29
13 | NCI-H727 | 0.986 | 0.672 | 0.938 | 0.922 | 0.853 | 0.52 | 0.54 | 0.522 | 0.674 | 0.446 | – | – | – | – | – | 0.235 | 0.354 | 0.302 | 0.332 | 0.314
14 | NCI-H1299 | 0.971 | 0.902 | 0.965 | 0.885 | 0.814 | – | – | – | – | – | – | – | – | – | – | – | – | – | – | –
15 | NCI-H1395 | – | – | – | – | – | 0.65 | 0.58 | 0.553 | 0.531 | 0.429 | 0.882 | 0.735 | 0.848 | 0.95 | 0.86 | 0.623 | 0.532 | 0.675 | 0.504 | 0.521
16 | NCI-H1648 | – | – | – | – | – | 0.27 | 0.314 | 0.244 | 0.253 | 0.249 | 0.619 | 0.588 | – | 0.802 | 0.661 | – | – | – | – | –
17 | NCI-H1703 | 1.16 | 0.613 | 0.467 | 0.756 | 0.356 | – | – | – | – | – | – | – | – | – | – | – | – | – | – | –
18 | NCI-H1793 | – | – | – | – | – | 0.26 | 0.215 | – | 0.288 | 0.221 | 1.14 | 0.737 | 0.869 | 1.03 | 0.686 | 0.176 | 0.16 | 0.194 | 0.146 | 0.167
19 | NCI-H2342 | – | – | – | – | – | 0.709 | 0.621 | 0.589 | 0.626 | 0.627 | 0.759 | 0.768 | 0.764 | 0.81 | 0.816 | 0.706 | 0.718 | 0.711 | 0.758 | 0.907
20 | SW 900 | – | – | – | – | – | 0.842 | 0.621 | 0.306 | 0.543 | 0.427 | 0.44 | 0.463 | 0.471 | 0.516 | 0.434 | 0.193 | 0.192 | 0.18 | 0.175 | 0.158
